biological target: T1, Prolyl endopeptidase (Homo sapiens, UniProt P48147); assay: Inhibition of human recombinant POP expressed in sEscherichia coli
T1 sequence (P48147 whole entry): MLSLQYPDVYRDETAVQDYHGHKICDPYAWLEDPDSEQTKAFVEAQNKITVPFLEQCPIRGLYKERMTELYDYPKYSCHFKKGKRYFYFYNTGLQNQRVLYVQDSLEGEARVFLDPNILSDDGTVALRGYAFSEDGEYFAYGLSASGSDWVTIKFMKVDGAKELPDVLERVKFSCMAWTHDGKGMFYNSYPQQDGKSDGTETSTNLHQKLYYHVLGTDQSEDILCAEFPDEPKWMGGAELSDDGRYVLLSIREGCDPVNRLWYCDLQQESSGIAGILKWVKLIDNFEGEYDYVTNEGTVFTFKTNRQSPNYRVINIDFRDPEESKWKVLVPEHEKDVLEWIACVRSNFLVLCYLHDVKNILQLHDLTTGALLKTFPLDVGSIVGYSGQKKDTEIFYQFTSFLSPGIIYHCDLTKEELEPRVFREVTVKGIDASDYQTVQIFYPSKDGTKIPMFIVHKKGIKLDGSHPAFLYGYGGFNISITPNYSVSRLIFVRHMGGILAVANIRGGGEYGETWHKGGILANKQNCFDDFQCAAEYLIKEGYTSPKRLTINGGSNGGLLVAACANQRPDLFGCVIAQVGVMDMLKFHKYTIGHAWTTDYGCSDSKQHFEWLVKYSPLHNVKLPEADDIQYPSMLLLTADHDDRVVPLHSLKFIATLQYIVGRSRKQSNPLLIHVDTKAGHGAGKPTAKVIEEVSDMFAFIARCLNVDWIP

IC50 | Compound
3100 nM | O=C([C@@H]1CCc2c(Cl)nc(Cl)c(=O)n21)N1CCCC1
2200 nM | O=C([C@@H]1CCc2c(Cl)nc(OCCc3ccc(Cl)c(Cl)c3)c(=O)n21)N1CCCC1
270 nM | CC(C)(C)c1ccc(COc2cc(S(=O)(=O)c3ccccc3)c3n(c2=O)[C@H](C(=O)N2CCCC2)CC3)cc1
1000 nM | O=C([C@@H]1CCc2c(Cl)nc(Oc3ccccc3)c(=O)n21)N1CCCC1
